{"source": "patent US10213433B2", "about": "(AbbVie Inc., priority 2010, dated 2019)", "data": [{"molecular_target": "Bcl-2 protein (Homo sapiens (Human), UniProt P10415)", "sequence (P10415 whole entry)": "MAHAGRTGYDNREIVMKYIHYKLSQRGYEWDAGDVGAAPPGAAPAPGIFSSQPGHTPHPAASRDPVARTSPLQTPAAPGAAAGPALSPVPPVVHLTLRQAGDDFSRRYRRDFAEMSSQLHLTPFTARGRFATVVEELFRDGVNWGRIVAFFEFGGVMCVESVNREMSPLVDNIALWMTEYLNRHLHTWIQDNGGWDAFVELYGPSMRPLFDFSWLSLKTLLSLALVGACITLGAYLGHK", "experiment": "Bcl-2 binding TR-FRET (Time-Resolved Fluorescence-Resonance-Energy-Transfer) assay", "settings": "inhibition constant for binding to Bcl-2 protein", "source_text": "The smaller the Ki value, the greater is the binding affinity.", "units": {"Ki": "nM"}, "values": [{"smiles": "O=C(NS(=O)(=O)c1ccc(NCC2CCOCC2)c([N+](=O)[O-])c1)c1ccc(N2CCN(CC3=C(c4ccc(Cl)cc4)CCC(F)(F)C3)CC2)cc1Oc1cnc2[nH]ccc2c1", "note": "[Compound 321, 4-(4-{[2-(4-chlorophenyl)-5,5-difluorocyclohex-1-en-1-yl]methyl}piperazin-1-yl)-N-({3-nitro-4-[(tetrahydro-2H-pyran-4-ylmethyl)amino]phenyl}sulfonyl)-2-(1H-pyrrolo[2,3-b]pyridin-5-yloxy)benzamide]", "Ki": "< 0.01"}, {"smiles": "O=C(NS(=O)(=O)c1ccc(OCC2(F)CCOCC2)c(Cl)c1)c1ccc(N2CCN(CC3=C(c4ccc(Cl)cc4)CCC4(CCN(C5COC5)CC4)C3)CC2)cc1Oc1cnc2[nH]ccc2c1", "note": "[Compound 325, N-({3-chloro-4-[(4-fluorotetrahydro-2H-pyran-4-yl)methoxy]phenyl}sulfonyl)-4-(4-{[9-(4-chlorophenyl)-3-(oxetan-3-yl)-3-azaspiro[5.5]undec-8-en-8-yl]methyl}piperazin-1-yl)-2-(1H-pyrrolo[2,3-b]pyridin-5-yloxy)benzamide]", "Ki": "< 0.01"}, {"smiles": "CC1(C)CCC(CN2CCN(c3ccc(C(=O)NS(=O)(=O)c4ccc(NC[C@@H]5CN(C6CC6)CCO5)c([N+](=O)[O-])c4)c(Oc4cnc5[nH]ccc5c4)c3)CC2)=C(c2ccc(Cl)cc2)C1", "note": "[Compound 326, 4-(4-{[2-(4-chlorophenyl)-4,4-dimethylcyclohex-1-en-1-yl]methyl}piperazin-1-yl)-N-{[4-({[(2R)-4-cyclopropylmorpholin-2-yl]methyl}amino)-3-nitrophenyl]sulfonyl}-2-(1H-pyrrolo[2,3-b]pyridin-5-yloxy)benzamide]", "Ki": "< 0.01"}, {"smiles": "CC1(C)CCC(CN2CCN(c3ccc(C(=O)NS(=O)(=O)c4ccc(NC[C@H]5CN(C6CC6)CCO5)c([N+](=O)[O-])c4)c(Oc4cnc5[nH]ccc5c4)c3)CC2)=C(c2ccc(Cl)cc2)C1", "note": "[Compound 327, 4-(4-{[2-(4-chlorophenyl)-4,4-dimethylcyclohex-1-en-1-yl]methyl}piperazin-1-yl)-N-{[4-({[(2S)-4-cyclopropylmorpholin-2-yl]methyl}amino)-3-nitrophenyl]sulfonyl}-2-(1H-pyrrolo[2,3-b]pyridin-5-yloxy)benzamide]", "Ki": "< 0.01"}, {"smiles": "O=C(NS(=O)(=O)c1ccc(NCC2CCOCC2)c([N+](=O)[O-])c1)c1ccc(N2CCN(CC3=C(c4ccc(Cl)cc4)CC4(CC3)CC4)CC2)cc1Oc1cnc2[nH]ccc2c1", "note": "[Compound 328, 4-(4-{[5-(4-chlorophenyl)spiro[2.5]oct-5-en-6-yl]methyl}piperazin-1-yl)-N-({3-nitro-4-[(tetrahydro-2H-pyran-4-ylmethyl)amino]phenyl}sulfonyl)-2-(1H-pyrrolo[2,3-b]pyridin-5-yloxy)benzamide]", "Ki": "< 0.01"}, {"smiles": "O=C(NS(=O)(=O)c1ccc(NCC2CN(C3CC3)CCO2)c([N+](=O)[O-])c1)c1ccc(N2CCN(CC3=C(c4ccc(Cl)cc4)CC4(CC3)CC4)CC2)cc1Oc1cnc2[nH]ccc2c1", "note": "(stereo not shown) [Compound 330, 4-(4-{[5-(4-chlorophenyl)spiro[2.5]oct-5-en-6-yl]methyl}piperazin-1-yl)-N-[(4-{[(4-cyclopropylmorpholin-2-yl)methyl]amino}-3-nitrophenyl)sulfonyl]-2-(1H-pyrrolo[2,3-b]pyridin-5-yloxy)benzamide]", "Ki": "< 0.01"}, {"smiles": "CC1(C)CCC(CN2CCN(c3ccc(C(=O)NS(=O)(=O)c4ccc(NC5CCC(N(CCC#N)C6CC6)CC5)c([N+](=O)[O-])c4)c(Oc4cnc5[nH]ccc5c4)c3)CC2)=C(c2ccc(Cl)cc2)C1", "note": "(stereo not shown) [Compound 340, 4-(4-{[2-(4-chlorophenyl)-4,4-dimethylcyclohex-1-en-1-yl]methyl}piperazin-1-yl)-N-{[4-({4-[(2-cyanoethyl)(cyclopropyl)amino]cyclohexyl}amino)-3-nitrophenyl]sulfonyl}-2-(1H-pyrrolo[2,3-b]pyridin-5-yloxy)benzamide]", "Ki": "< 0.01"}]}]}
